Experimental data published in the pKa sets of Baltruschat and Czodrowski (2020).
Where a SMILES comes first, the peptide text is derived from it.

Conditions: basic group

Compound | pKa
CN(CCCN)CCC[NH3+] | 9.27
c1ccc(C(CCN2CCOCC2)c2ccccc2)cc1 | 7.25
O=[N+]([O-])c1cccc(C2NCCS2)c1 (stereo not given) | 4.63
CC(C)(C)CNc1ccccc1 | 4.17
O=C(O)c1ccc(O)c2ncccc12 | 4
NC(=S)C(N)Cc1ccccc1 (stereo not given) | 7.15
Cc1cccc(N)c1 | 4.7
C1CCC2NCCCC2C1 (stereo not given) | 10.9
CC(C)(C)C(=O)n1cnc2ccccc21 | 2
Cn1ccc2ccccc2c1=O | -1.8
Cc1ccc(NCC[NH2+]c2ccc(C)cc2)cc1 | 2.7
NCC(=O)c1ccc(O)cc1 | 8.05
C1CCN(CCN2CCCCC2)CC1 | 9.43
O=[PH]([O-])C(NCc1ccccn1)c1ccccc1O (stereo not given) | 8.08
c1cc(N2CCOCC2)ccc1N1CCCCC1 | 6.7
CC[C@@H]1C(=O)OC[C@H]1Cc1cncn1C | 7.17
c1c[nH]c(Cc2ncc[nH]2)n1 | 7.27
NC(=O)Nc1[nH]cnc1C(=O)[O-] | 4.9
Cc1ccccc1/C(=N\CCC[NH+](C)C)c1ccccc1-c1ccccc1 | 4.67
Oc1cccc2cccnc12 | 5.02
[NH3+]c1ccc(-c2cnc(-c3ccc(Cl)cc3)o2)cc1 | 0.27
CC(C)[C@H]1CC[C@H](C)C[C@@H]1N | 10.6

Compound | pKa
CCN(CC)Cc1cc([N+](=O)[O-])ccc1[O-] | 11
c1ccc(-n2cnnn2)cc1 | -3.41
CCCN(CC(O)CC)CC(O)CC (stereo not given) | 9
CCc1cc(-c2ccccc2)nnc1NCCN1CCOCC1 | 7.08
C1CNCCSCCNC1 | 12
CN(C)Cc1cc(C(=O)c2ccccc2)ccc1[O-] | 10.2
CCc1cccc(/N=N/c2ccc(N(C)C)cc2)c1 | 2.16
COC(=O)[C@@H]1[C@@H](O)C[C@H]2CC[C@@H]1N2C | 8.21
CN1CCN(C(c2ccccc2)c2ccc(Cl)cc2)CC1 (stereo not given) | 7.81
Nc1ncnc([S-])c1N | 9.34
Cn1cnc2ncncc21 | 2.29
Cc1ccc(/N=N/c2ccc(N(C)C)cc2)cc1C | 2.37
Nc1ccc2cc3ccc(N)cc3nc2c1 | 9.65
Cc1ccccc1C(=NCCCN(C)C)c1ccccc1C | 8.7
CC(=O)c1ccccn1 | -0.46
CC(C)C[C@H](N)C(=O)N[C@@H](Cc1c[nH]cn1)C(=O)[O-] (H-Leu-His-OH) | 7.78
CCc1ccc([C@@H]2CCC[NH+]2C)cn1 | 3.69
N=C(N)Nc1nc(N)nc(NC(N)=[NH2+])n1 | 7
CCOCCNc1cccc(C)c1 | 4.24
C1CCc2c(nnc3c2CCCC3)C1 | 6.12
Cc1cnc2c(c1)c(C)cc1c(C)c(C)cnc12 | 6.07
CCN(CCO)CC(C)O (stereo not given) | 8.9

Compound | pKa
CCN1CCC[C@@H]1CNC(=O)c1c(OC)ccc([N+](=O)[O-])c1[O-] | 9.12
Cc1ccc([N+](=O)[O-])c2c(NCCC[NH+](C)C)c3ccccc3nc12 | 6.29
Cc1cc2nc3ccc(N(C)C)cc3[nH+]c2cc1N | 0.2
[NH3+]CCc1c[nH]cn1 | 6.08
CN(C)CCC(=O)[O-] | 9.85
Cc1cc(C(F)(F)F)n[nH]1 | -0.5
CC1(C)CC(NCCO)CC(C)(C)N1 | 10.5
CN(C)c1ccc(N2CCOCC2)cc1 | 5.7
Cc1cnn(C)c1C | 3.58
N/C(CC[NH3+])=N\O | 3.75
CCc1ccccn1 | 5.98
Cc1ccc(-c2cnc(-c3ccccc3)o2)cc1 | 0.91
CCCC(N)C(=O)[O-] (stereo not given) | 9.86
ClC1CC2CCN1CC2 (stereo not given) | 6.98
CCCNc1c2ccccc2nc2cccc([N+](=O)[O-])c12 | 7.2
[NH3+]CCCCCc1cccnc1 | 5.61
CCOC(=O)C(N)CC (stereo not given) | 7.71
CSc1ccncc1 | 5.97
O=C([O-])c1ccc(O)c2ncccc12 | 4.8
Nc1cccc(N)c1O | 5.5
Nc1cccnc1N | 6.84
C[C@@H]1CC[C@@H]2CC[C@H](C)N21 | 10.2

Compound | pKa
Cc1cc(Cl)n(C)c2nc3ccccc3c1-2 | 7.45
Cn1nccc1N | 4.23
Cc1cn2nc(-c3ccccc3)cc(C)c2n1 | 5.3
CC(C=C(c1cccs1)c1cccs1)N1CCCCC1 (stereo not given) | 8.46
Cc1cc(N[NH3+])nc2ccccc12 | 2.8
Cc1ccc(O)c(CN(C)C)c1 | 8.68
CCCCCSC(=N)c1ccccc1 | 8.5
CCNCCCC(=O)[O-] | 11
C=C(C)C(=O)OCCCN | 9.62
CCNc1nc(NCC)nc(NCC)n1 | 5.84
c1ccc(-c2ccncc2)nc1 | 4.77
CC(C)[C@H]1CN[C@H](C(=O)[O-])[C@H]1CC(=O)[O-] | 10.6
NCCN1CCOCC1 | 9.45
CC(C)NCC(=O)[O-] | 10.1
CCNc1ccccc1 | 5.29
NC(=O)CC(=O)c1ccccn1 | 8.23
COc1ccc2c3c1O[C@H]1CCC[C@H]4[C@@H]([C@H]2O)N(C)CC[C@]314 | 7.71
C[C@H]1[C@@H]([NH3+])[C@@H](C)[C@@H](N)[C@@H](C)[C@H]1[NH3+] | 5.15
CCCCCCCCCCN(CC(O)CC)CC(O)CC (stereo not given) | 6.6
